# Read-outs that look alike come from different tables or passages of the source.
# Tests used:
# Type in all cases: cell-based
# Farage CRBN^WT cells = assay: Cell proliferation in CRBN^WT (CAS9 control) cells, 5 days; conditions: 120 h
# Source text: (§1) The activated B-cell (ABC) and MYC/BCL2 double expressor cell lines SU-DHL-2 and RIVA, the germinal center B-cell (GCB) and MYC/BCL2 double hit cell lines (and expressing BCL6) Karpas-422, SU-DHL-10, WSU-DLCL2, and the primary mediastinal B-cell lymphoma (PMBL) cell line Farage were infected with a CAS9 expressing lentivirus construct to generate the control CAS9 expressing cells. The Cas9 cells had wild type cereblon expression (CRBN^WT).
# (§2) To generate the cereblon knock out cells (CRBN^−/−), the individual control CAS9 cells were infected with a construct expressing a subgenomic single guide RNA (sgRNA). Western blot analysis confirmed the absence of cereblon protein in the CRBN^−/− cells, relative to the levels of the housekeeping protein β-tubulin. The CRBN^WT and CRBN^−/− cells were treated with increasing concentrations of Compound 1 for five days.
# Karpas-422 CRBN^WT cells = assay: as above; conditions: Homo sapiens, 120 h
# Source text: as §1, §2
# RIVA CRBN^WT cells = assay: as above; conditions: 120 h
# Source text: as §1, §2
# SU-DHL10 CRBN^WT cells = assay: as above; conditions: Homo sapiens, 120 h
# Source text: as §1, §2
# SU-DHL2 CRBN^WT cells = assay: as above; conditions: Homo sapiens, SU-DHL-2, 120 h
# Source text: as §1, §2
# WSU-DLCL2 CRBN^WT cells = assay: as above; conditions: Homo sapiens, WSUDLCL2, 120 h
# Source text: as §1, §2
# [1] = tested on: Karpas-422 CRBN^-/- cells; assay: Cell proliferation in CRBN^-/- (knock out) cells, 5 days; conditions: Homo sapiens, 120 h
# Source text: as §1, §2
# RIVA CRBN^-/- cells = assay: as above; conditions: 120 h
# Source text: as §1, §2
# WSU-DLCL2 CRBN^-/- cells = assay: as above; conditions: Homo sapiens, WSUDLCL2, 120 h
# Source text: as §1, §2
# Aiolos = biological target: T1, Aiolos (Homo sapiens, UniProt Q96SW2+Q9UKT9); assay: ePL-tagged substrate degradation kinetics in DF15 cells (enantiomer comparison); parameters: Aiolos Y-constant: scale not given here; conditions: for DC50: read-out: Aiolos EC50
# T1 construct: expressed in transfected cells; host or cells: DF15 cells
# T1 sequence (Q9UKT9 whole entry): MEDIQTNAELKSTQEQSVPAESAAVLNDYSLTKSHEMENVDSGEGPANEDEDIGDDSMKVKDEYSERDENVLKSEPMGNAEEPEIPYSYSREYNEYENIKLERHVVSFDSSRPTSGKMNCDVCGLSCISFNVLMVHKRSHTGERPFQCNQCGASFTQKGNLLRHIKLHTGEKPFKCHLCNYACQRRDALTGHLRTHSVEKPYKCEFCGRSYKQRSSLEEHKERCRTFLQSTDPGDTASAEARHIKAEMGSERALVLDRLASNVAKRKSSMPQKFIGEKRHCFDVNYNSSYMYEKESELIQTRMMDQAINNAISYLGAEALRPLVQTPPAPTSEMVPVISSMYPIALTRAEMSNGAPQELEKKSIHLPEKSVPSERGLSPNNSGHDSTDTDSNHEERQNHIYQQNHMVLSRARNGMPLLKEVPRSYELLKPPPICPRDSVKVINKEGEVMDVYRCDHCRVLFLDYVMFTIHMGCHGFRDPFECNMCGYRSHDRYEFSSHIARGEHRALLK
# T1 sequence (Q96SW2 whole entry): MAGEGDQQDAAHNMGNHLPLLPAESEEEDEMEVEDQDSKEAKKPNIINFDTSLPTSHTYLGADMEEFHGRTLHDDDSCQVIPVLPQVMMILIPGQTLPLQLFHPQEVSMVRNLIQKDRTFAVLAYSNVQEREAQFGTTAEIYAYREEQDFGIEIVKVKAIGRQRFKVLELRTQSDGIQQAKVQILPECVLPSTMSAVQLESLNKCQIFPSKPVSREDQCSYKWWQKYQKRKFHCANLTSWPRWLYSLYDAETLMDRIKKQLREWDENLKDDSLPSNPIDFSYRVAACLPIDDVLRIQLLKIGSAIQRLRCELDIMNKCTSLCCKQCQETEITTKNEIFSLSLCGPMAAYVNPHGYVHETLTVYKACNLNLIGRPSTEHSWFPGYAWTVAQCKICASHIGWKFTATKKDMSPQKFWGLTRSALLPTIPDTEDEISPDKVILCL
# T1 sequence (Q16531 whole entry partner): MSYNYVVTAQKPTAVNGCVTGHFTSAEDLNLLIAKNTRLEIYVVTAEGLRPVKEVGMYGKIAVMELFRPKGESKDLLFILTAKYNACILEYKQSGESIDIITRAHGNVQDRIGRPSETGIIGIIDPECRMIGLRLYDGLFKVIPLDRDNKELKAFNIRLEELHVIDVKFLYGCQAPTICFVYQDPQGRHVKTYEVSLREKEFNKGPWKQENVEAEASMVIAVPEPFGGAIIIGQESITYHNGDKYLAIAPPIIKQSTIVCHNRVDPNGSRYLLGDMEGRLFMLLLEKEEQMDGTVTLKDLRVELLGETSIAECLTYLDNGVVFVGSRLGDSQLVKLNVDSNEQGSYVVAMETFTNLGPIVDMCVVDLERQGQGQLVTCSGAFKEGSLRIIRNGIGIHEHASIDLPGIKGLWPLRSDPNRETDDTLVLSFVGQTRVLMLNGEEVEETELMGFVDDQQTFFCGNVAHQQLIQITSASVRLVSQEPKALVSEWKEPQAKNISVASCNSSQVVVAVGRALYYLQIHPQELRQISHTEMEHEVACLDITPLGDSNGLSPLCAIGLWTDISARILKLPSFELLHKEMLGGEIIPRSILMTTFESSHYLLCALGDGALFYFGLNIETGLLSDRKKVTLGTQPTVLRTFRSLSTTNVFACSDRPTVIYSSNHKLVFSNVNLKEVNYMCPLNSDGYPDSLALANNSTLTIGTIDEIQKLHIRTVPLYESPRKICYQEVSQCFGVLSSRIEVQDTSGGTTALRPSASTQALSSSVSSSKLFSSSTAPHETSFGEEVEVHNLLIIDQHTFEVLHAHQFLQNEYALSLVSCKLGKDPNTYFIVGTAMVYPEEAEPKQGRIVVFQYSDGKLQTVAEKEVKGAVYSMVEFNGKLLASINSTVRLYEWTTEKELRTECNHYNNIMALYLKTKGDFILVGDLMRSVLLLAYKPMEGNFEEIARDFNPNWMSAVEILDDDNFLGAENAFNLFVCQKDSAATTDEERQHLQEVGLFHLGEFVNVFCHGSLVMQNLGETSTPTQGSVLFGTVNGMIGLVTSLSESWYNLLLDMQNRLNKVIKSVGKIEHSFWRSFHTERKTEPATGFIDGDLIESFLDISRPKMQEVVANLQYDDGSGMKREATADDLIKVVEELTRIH
# Experimental: In a second assay, DF15 cell lines expressing ePL-tagged target protein substrates were used as a model system to monitor protein degradation at 0.75, 1, 1.5, 3, 4, and 24 hours over a concentration range from 1 pM to 10 μM. The proteins evaluated were Ikaros (FIG. 17), Aiolos, and ZFP91. Compound 1 and Compound 2 were both able to degrade the substrate proteins at all time points (Table 9). In a further assay, additional time points were included to monitor the effect of treatment with Compound 1 and Compound 2.
# The depth of substrate protein degradation described by the Y-constant was also measured in this assay against a negative control luciferase inhibitor (CC1071297, Y-constant=0).
# SU-DHL-2^CRBNWT cells [2] = assay: Western blot time- and concentration-response of endogenous substrates; conditions: 10 and 100 nM, entire course of treatment
# Source text: However, Compound 1 had no activity in SU-DHL-2^CRBN−/− cells, indicating the requirement of cereblon for induction of apoptosis by Compound 1 in DLBCL (FIG. 5 C).
# SU-DHL-2^CRBNWT cells [3] = assay: Live-cell imaging of caspase-3 activation; conditions: time course of 112 hours
# Experimental: To confirm the timing of induction of apoptosis and its cereblon dependency, a live-cell imager that provides kinetic, real-time caspase-3 activation (indicator of apoptosis) data was used. SU-DHL-2^CRBNWT cells treated with Compound 1 were analyzed for caspase-3 activation by following the cleavage in cells of a specific caspase-3 enzyme substrate over a time course of 112 hours. Compound 1-dependent induction of caspase-3 activity began at 12 hours post treatment and reached maximal induction at ˜72 hours (FIG. 5 D).
# Ikaros = Ikaros (Homo sapiens, UniProt Q13422+Q96SW2); assay: Ikaros degradation in anti-CD3 stimulated PBMCs by flow cytometry
# Sequence of Ikaros (Q13422 whole entry): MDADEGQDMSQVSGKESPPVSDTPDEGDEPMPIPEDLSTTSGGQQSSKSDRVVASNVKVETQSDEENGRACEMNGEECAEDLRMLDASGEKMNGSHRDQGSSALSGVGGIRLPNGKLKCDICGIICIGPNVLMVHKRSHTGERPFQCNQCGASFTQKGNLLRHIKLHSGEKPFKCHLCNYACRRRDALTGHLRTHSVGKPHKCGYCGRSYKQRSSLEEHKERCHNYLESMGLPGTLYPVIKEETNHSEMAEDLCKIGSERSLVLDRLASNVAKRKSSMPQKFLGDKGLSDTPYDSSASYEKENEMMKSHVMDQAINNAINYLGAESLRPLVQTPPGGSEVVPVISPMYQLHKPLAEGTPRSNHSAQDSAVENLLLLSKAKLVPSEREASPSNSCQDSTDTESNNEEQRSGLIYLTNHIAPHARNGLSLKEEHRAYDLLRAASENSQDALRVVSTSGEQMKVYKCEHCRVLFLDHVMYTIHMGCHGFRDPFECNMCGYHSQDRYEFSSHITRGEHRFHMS
# Sequence of Ikaros (Q96SW2 whole entry): as the sequence (Q96SW2 whole entry) above
# Sequence of Ikaros (Q16531 whole entry partner): as the sequence (Q16531 whole entry partner) above
# Experimental: Purified PBMCs from four healthy donors were plated on anti-CD3-coated plates to stimulate T cells and subsequently treated with either DMSO (control) or Compound 1 at various concentrations. The ability of Compound 1 to promote the degradation of Ikaros was assessed over time by flow cytometry (FIG. 12).
# [4] = tested on: PBMCs from four healthy donors; assay: Cytokine secretion by anti-CD3 stimulated PBMCs (MSD)
# Experimental: Purified PBMCs from four healthy donors were plated on anti-CD3 antibody-coated plates to stimulate T cells and were subsequently treated with either DMSO (control) or Compound 1 at various concentrations for 3, 4, and 7 days. Secretion of cytokines was measured in supernatant fluid from PBMC cultures over time by using mesoscale (MSD) assays. Compound 1 induced IL-2 secretion at all concentrations tested.
# [5] = tested on: KARPAS-422, RIVA, HT, and SU-DHL-4 cell lines; assay: Dose response in cells expressing degradation-resistant mutants of Ikaros, Aiolos, ZFP91; conditions: KARPAS-422 and SU-DHL-4
# Source text: To test whether Ikaros and Aiolos were redundant in promoting the survival and proliferation of DLBCL lines, degradation-resistant mutants of Ikaros (IKZF1-G151A), Aiolos (IKZF3-G152A), and ZFP91 (ZFP91-G405A), along with NanoLuc luciferase (Nluc) as a control, were ectopically and stably expressed in four DLBCL cell lines: KARPAS-422, RIVA, HT, and SU-DHL-4. Dose response curves with Compound 1 indicate that expression of degradation-resistant mutants of Ikaros or Aiolos provided protection from Compound 1 in all four cell lines (FIG. 11). Additionally, the ectopic expression of the degradation-resistant mutants, as well as their protection against Compound 1-induced degradation, was confirmed by immunoblot analysis. […] Beta-actin levels were used as a control. […] However, there were varying degrees of protection observed in the four cell lines.
smiles,measurement,setting,value
"O=C1CC[C@H](N2C(=O)c3cccc(NCc4ccc(CN5CC(N6CCOCC6)C5)cc4F)c3C2=O)C(=O)N1 [Compound 1, (S)-2-(2,6-dioxopiperidin-3-yl)-4-((2-fluoro-4-((3-morpholinoazetidin-1-yl)methyl)benzyl)amino)isoindoline-1,3-dione]",Emax,Farage CRBN^WT cells,0.5%
same,IC50,Farage CRBN^WT cells,8 nM
same,Emax,Karpas-422 CRBN^WT cells,5%
same,IC50,Karpas-422 CRBN^WT cells,15 nM
same,Emax,RIVA CRBN^WT cells,30%
same,IC50,RIVA CRBN^WT cells,8 nM
same,Emax,SU-DHL10 CRBN^WT cells,0%
same,IC50,SU-DHL10 CRBN^WT cells,35 nM
same,Emax,SU-DHL2 CRBN^WT cells,1%
same,IC50,SU-DHL2 CRBN^WT cells,2.5 nM
same,Emax,WSU-DLCL2 CRBN^WT cells,19%
same,IC50,WSU-DLCL2 CRBN^WT cells,40 nM
same,IC50,[1],> 10000 nM
same,IC50,RIVA CRBN^-/- cells,> 10000 nM
same,IC50,WSU-DLCL2 CRBN^-/- cells,> 10000 nM
same,Aiolos Y-constant,Aiolos; 0.75 hours,46
same,DC50,Aiolos; 0.75 hours,0.73 nM
same,Aiolos Y-constant,Aiolos; 1 hour,29
same,DC50,Aiolos; 1 hour,0.94 nM
same,Aiolos Y-constant,Aiolos; 1.5 hours,11
same,DC50,Aiolos; 1.5 hours,0.72 nM
same,Aiolos Y-constant,Aiolos; 3 hours,4.8
same,DC50,Aiolos; 3 hours,0.6 nM
same,Aiolos Y-constant,Aiolos; 4 hours,3.9
same,DC50,Aiolos; 4 hours,0.56 nM
same,Aiolos Y-constant,Aiolos; 24 hours,4.0
same,DC50,Aiolos; 24 hours,0.52 nM
same,"Ikaros, Aiolos, and ZFP91 protein expression",SU-DHL-2^CRBNWT cells [2],complete suppression
same,start of induction of caspase-3 activity post treatment,SU-DHL-2^CRBNWT cells [3],12 h
same,time of maximal induction of caspase-3 activity,SU-DHL-2^CRBNWT cells [3],~72 h
same,duration of Ikaros degradation after a single treatment,Ikaros,maintained up to 7 days
same,Ikaros in PBMCs (percentage of Ikaros positive cells),Ikaros; four healthy donors,concentration-dependent degradation
same,Interleukin-2 secretion by PBMCs,"[4]; 0.1 to 100 nM, 3, 4, and 7 days",increased
same,"other monitored cytokines (TNFα, IFNγ, IL-4, IL-13, IL-10, and IL-6)","[4]; 3, 4, and 7 days",Transient or no effect
same,protection by degradation-resistant mutants of Ikaros or Aiolos,[5],nearly complete protection

# From patent US20210116454A1, “METHODS FOR TREATING A HEMATOLOGICAL CANCER AND THE USE OF COMPANION BIOMARKERS FOR 2-(2,6-DIOXOPIPERIDIN-3-YL)-4-((2-FLUORO-4-((3-MORPHOLINOAZETIDIN-1-YL)METHYL)BENZYL)AMINO)ISOINDOLINE-1,3-DIONE” (CELGENE CORPORATION, priority 2019, published 2021)
